In PMC4413606, “Identification of a new class of natural product MDM2 inhibitor: In vitro and in vivo anti-breast cancer activities and target validation” (Oncotarget, 2014) one finds Ki data, which are given here for one substance.

This test concerns the target T1, MDM2 (Homo sapiens, UniProt Q00987).
T1 construct: GST-MDM2
The test is described as follows: fluorescence polarization competitive binding assay (PMDM6-F tracer); also cellular thermal shift assay in MCF-7 and MDA-MB-231 cells. A general note: In fluorescence polarisation assays a small probe gives low polarisation when free and higher when bound to something large.

T1 sequence (Q00987 whole entry): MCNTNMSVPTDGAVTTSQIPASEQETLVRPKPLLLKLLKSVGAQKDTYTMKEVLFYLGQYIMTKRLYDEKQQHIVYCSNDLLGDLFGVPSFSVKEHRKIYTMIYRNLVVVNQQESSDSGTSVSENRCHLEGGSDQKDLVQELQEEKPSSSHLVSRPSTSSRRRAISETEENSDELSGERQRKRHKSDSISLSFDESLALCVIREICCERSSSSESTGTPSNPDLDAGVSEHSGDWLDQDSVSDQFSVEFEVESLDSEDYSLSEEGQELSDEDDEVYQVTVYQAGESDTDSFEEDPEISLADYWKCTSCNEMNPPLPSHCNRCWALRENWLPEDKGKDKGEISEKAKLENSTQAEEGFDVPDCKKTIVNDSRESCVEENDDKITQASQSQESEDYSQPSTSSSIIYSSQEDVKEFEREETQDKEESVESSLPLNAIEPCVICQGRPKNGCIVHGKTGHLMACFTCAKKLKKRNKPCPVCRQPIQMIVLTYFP

The term Ki denotes the dissociation constant of the complex between target and ligand, obtained from inhibition or displacement. In the case of JapA, the Ki stood at 0.27 µM.
